Converted amounts (≈) assume the structure as drawn. “And” between values parts separate entries of the source, which are not always exact repeats. Equal values may be shown once.
Experiments:
[1] = test system: Staphylococcus aureus; test: Antibacterial activity against Staphylococcus aureus K2378 harbouring norA promoting and coding region assessed as inhibition of bacterial growth by broth microdilution method; format: functional
[2] = test system: Staphylococcus aureus; test: Antibiofilm activity against Staphylococcus aureus 1199B overexpressing norA and harboring A116E grlA mutant assessed as biofilm eradication incubated for 24 hrs by Calgary biofilm device assay; format: functional
[3] = test system: Staphylococcus aureus; test: Antibiofilm activity against wild type Staphylococcus aureus 1199 assessed as biofilm eradication incubated for 24 hrs by Calgary biofilm device assay; format: functional
[4] = test system: Staphylococcus aureus; test: Antibacterial activity against ciprofloxacin-resistant Staphylococcus aureus 1199B overexpressing norA and harboring A116E grlA mutant assessed as inhibition of bacterial growth by broth microdilution method; format: functional
[5] = test system: Staphylococcus aureus; test: Antibacterial activity against ciprofloxacin-susceptible wild type Staphylococcus aureus 1199 assessed as inhibition of bacterial growth by broth microdilution method; format: functional
[6] = test system: Staphylococcus aureus; test: Antibacterial activity against norA deleted Staphylococcus aureus K1902 assessed as inhibition of bacterial growth by broth microdilution method; format: functional
[7] = test system: Staphylococcus aureus; test: Antibiofilm activity against norA deleted Staphylococcus aureus K1902 assessed as biofilm eradication incubated for 24 hrs by Calgary biofilm device assay; format: functional
[8] = test system: Staphylococcus aureus; test: Synergistic antibacterial activity against Staphylococcus aureus K2378 overexpressing norA assessed as fold reduction in ciprofloxacin MIC at 0.2 to 12.5 ug/ml by checkerboard assay; format: functional; settings: dose 0.2-12.5 µg/ml
[9] = Cytotoxicity against human THP-1 cells assessed as cell viability at 3.13 ug/ml incubated for 24 hrs by MTT assay relative to control; format: toxicity, cell-based; settings: at 3.13 µg/mL, read-out: Activity
[10] = test system: Staphylococcus aureus; test: Synergistic antibiofilm activity against wild type Staphylococcus aureus 1199 assessed as biofilm eradication by measuring ciprofloxacin MBEC at 3.13 ug/ml incubated for 24 hrs by Calgary biofilm device assay; format: functional; settings: dose 3.13 µg/ml
[11] = test system: Staphylococcus aureus; test: Synergistic antibacterial activity against Staphylococcus aureus 1199B overexpressing norA and harboring A116E grlA mutant assessed as four fold minimum potentiating concentration incubated in presence of ciprofloxacin by checkerboard assay; format: functional
[12] = Cytotoxicity against human THP-1 cells assessed as cell viability incubated for 24 hrs by MTT assay; format: toxicity, cell-based
[13] = Cytotoxicity against human A549 cells assessed as cell viability at 12.5 ug/ml incubated for 24 hrs by MTT assay relative to control; format: toxicity, cell-based; settings: at 12.5 µg/mL, read-out: Activity
[14] = test system: Staphylococcus aureus; test: Synergistic antibacterial activity against ciprofloxacin-resistant Staphylococcus aureus 1199B overexpressing norA and harboring A116E grlA mutant assessed as fold reduction in ciprofloxacin MIC at 6.25 uM by broth microdilution method; format: functional
[15] = Selectivity index, ratio of CC50 for cytotoxicity against human THP-1 cells to MPC for synergistic antibacterial activity against Staphylococcus aureus 1199B overexpressing norA and harboring A116E grlA mutant assessed as four fold minimum potentiating concentration; format: toxicity, cell-based
[16] = test system: Staphylococcus aureus; test: Synergistic antibiofilm activity against Staphylococcus aureus 1199B overexpressing norA and harboring A116E grlA mutant assessed as biofilm eradication by measuring ciprofloxacin MBEC at 3.13 ug/ml incubated for 24 hrs by Calgary biofilm device assay; format: functional; settings: dose 3.13 µg/ml
[17] = test system: Staphylococcus aureus; test: Inhibition of EtBr efflux in ciprofloxacin-resistant Staphylococcus aureus 1199B overexpressing norA and harboring A116E grlA mutant assessed as reduction in fluorescence intensity at 50 uM measured for 5 mins by microplate reader analysis relative to control; format: functional
[18] = test system: Staphylococcus aureus; test: Inhibition of EtBr efflux in ciprofloxacin-resistant Staphylococcus aureus 1199B overexpressing norA and harboring A116E grlA mutant assessed as reduction in fluorescence intensity at 10 uM measured for 5 mins by microplate reader analysis relative to control; format: functional
[19] = Cytotoxicity against human THP-1 cells assessed as cell viability at 12.5 ug/ml incubated for 24 hrs by MTT assay relative to control; format: toxicity, cell-based; settings: at 12.5 µg/mL, read-out: Activity
[20] = Cytotoxicity against human A549 cells assessed as cell viability at 3.13 ug/ml incubated for 24 hrs by MTT assay relative to control; format: toxicity, cell-based; settings: at 3.13 µg/mL, read-out: Activity
[21] = test system: Staphylococcus aureus; test: Synergistic antibacterial activity against Staphylococcus aureus 1199B overexpressing norA and harboring A116E grlA mutant assessed as eight fold minimum potentiating concentration incubated in presence of ciprofloxacin by checkerboard assay; format: functional
[22] = test system: Staphylococcus aureus; test: (§1) Potentiation of ciprofloxacin-induced antibacterial activity against Staphylococcus aureus 1199B overexpressing norA and harboring A116E grlA mutant assessed as time for post-antibiotic effect at 6.25 ug/ml preincubated for 1 hr followed by compound washout and measured after 5 hrs; format: functional; settings: dose 6.25 µg/ml
[23] = test system: Staphylococcus aureus; test: Synergistic antibiofilm activity against Staphylococcus aureus 1199B overexpressing norA and harboring A116E grlA mutant assessed as biofilm eradication by measuring fold reduction in ciprofloxacin MBEC at 3.13 ug/ml incubated for 24 hrs by Calgary biofilm device assay; format: functional; settings: dose 3.13 µg/ml
[24] = test system: Staphylococcus aureus; test: (§2) Synergistic bactericidal activity against Staphylococcus aureus 1199B overexpressing norA and harboring A116E grlA mutant assessed as reduction in bacterial count by measuring log reduction in colony forming count per ml at 6.25 ug/ml incubated for 6 hrs in presence of ciprofloxacin at 0.25 to 1 times MIC by time kill assay; format: functional; settings: dose 6.25 µg/ml
[25] = test system: Staphylococcus aureus; test: as §2, with “for 4” for “for 6”; format: functional; settings: dose 6.25 µg/ml
[26] = test system: Staphylococcus aureus; test: Synergistic antibiofilm activity against norA deleted Staphylococcus aureus K1902 assessed as biofilm eradication by measuring ciprofloxacin MBEC at 3.13 ug/ml incubated for 24 hrs by Calgary biofilm device assay; format: functional; settings: dose 3.13 µg/ml
[27] = test system: Staphylococcus aureus; test: as §1, with “as” for “as time for”, “effect by measuring log reduction in colony forming unit per ml” for “effect”; format: functional; settings: dose 6.25 µg/ml
[28] = test system: Staphylococcus aureus; test: Synergistic antibiofilm activity against wild type Staphylococcus aureus 1199 assessed as biofilm eradication by measuring fold reduction in ciprofloxacin MBEC at 3.13 ug/ml incubated for 24 hrs by Calgary biofilm device assay; format: functional; settings: dose 3.13 µg/ml

O=C(O)c1cn(C2CC2)c2cc(N3CCNCC3)c(F)cc2c1=O [CIPROFLOXACIN]
MIC [1]: 0.63 µg/mL (≈ 1.9 µM)
MBEC [2]: 640 µg/mL
MBEC [3]: 20 µg/mL
MIC [4]: 10 µg/mL (≈ 30.2 µM)
MIC [5]: 0.08 µg/mL (≈ 0.241 µM)
MIC [6]: 0.15 µg/mL (≈ 0.453 µM)
MBEC [7]: 40 µg/mL

CCCOc1ccc(-c2cc(OCCN3CCCCCC3)c3cc(OCCC)ccc3n2)cc1
fold change (FC) [8]: 4
viability at 24 h, 3.13 ug/ml [9]: 70.3%
MBEC [10]: 0.07 µg/mL
MPC [11]: 0.2 µg/mL
CC50 at 24 h [12]: > 3.13 µg/mL
viability at 24 h, 12.5 ug/ml [13]: 84.5%
fold change (FC) [14]: 8
selectivity ratio [15]: > 15
MBEC [16]: 2.5 µg/mL
inhibition [17]: 82.3%
inhibition [18]: 78.8%
viability at 24 h, 12.5 ug/ml [19]: 38.4%
MIC [1]: > 50 µg/mL
MIC [4]: > 50 µg/mL and > 540 µM
MIC [5]: > 50 µg/mL
MIC [6]: > 50 µg/mL
viability at 24 h, 3.13 ug/ml [20]: 100%

CCCOc1ccc(-c2cc(OCCN(CC)CC)c3cc(Oc4ccccc4)ccc3n2)cc1
MPC [21]: 1.56 µg/mL
fold change (FC) [8]: 4
Time [22]: 1.2 h
viability at 24 h, 3.13 ug/ml [9]: 77.3%
fold change (FC) [23]: 512
MBEC [10]: 0.07 µg/mL
CC50 at 24 h [12]: > 3.13 µg/mL
viability at 24 h, 12.5 ug/ml [13]: 84.8%
log(activity) [24]: 2
fold change (FC) [14]: >=8
MBEC [16]: 1.25 µg/mL
inhibition [17]: 80.9%
inhibition [18]: 76.1%
log(activity) [25]: 3
viability at 24 h, 12.5 ug/ml [19]: 8.2%
MBEC [26]: 40 µg/mL
MIC [1]: 25 µg/mL (≈ 53.1 µM)
log(activity) [27]: 1
fold change (FC) [28]: 286
MIC [4]: > 50 µg/mL and > 531 µM
MIC [5]: > 50 µg/mL
MIC [6]: 25 µg/mL (≈ 53.1 µM)
viability at 24 h, 3.13 ug/ml [20]: 80.1%

Source: ChEMBL document CHEMBL5108024, “New C-6 functionalized quinoline NorA inhibitors strongly synergize with ciprofloxacin against planktonic and biofilm growing resistant Staphylococcus aureus strains” (Eur J Med Chem, 2022)
